# Laboratory results from patent publication US20100022637A1, “IDENTIFICATION OF ANTI-CANCER COMPOUNDS AND COMPOUNDS FOR TREATING HUNTINGTON'S DISEASE AND METHODS OF TREATMENT THEREOF” (THE TRUSTEES OF COLUMBIA UNIVERSITY IN THE CITY OF NEW YORK, priority 2005, published 2010).
# Legend:
# [1] = tested on: N548 mutant cells; experiment: cells; conditions: for maximal fold induction: read-out: N548 Mut: Max, maximum rescue expressed as fold over DMSO treated N548 mutant cells; for Activity: scale not defined; for selectivity profile of cell death rescue in panel of htt expressing cell lines: N63, N548, FL htt cell lines, in words
# Procedure: Embryonic rat striatal neurons were conditionally immortalized by stably transfecting a temperature-sensitive SV40 large T-antigen (T-ag) to generate the ST14A cell line. ST14A cells proliferate at the permissive temperature (33° C.), but stop dividing at 39° C., as a result of T-ag degradation. […] As htt protein context modulates polyQ toxicity, testing these different length htt proteins could provide insight into the basis for context dependence.
# ST14A Assay System: Calcein acetoxylmethyl ester (AM) (Molecular Probes, Eugene, Oreg.) is a non-fluorescent, membrane-permeable compound that is cleaved by intracellular esterases, which subsequently forms the anionic, fluorescent compound, calcein, that cannot permeate the cell membrane. […] A fluorescence viability assay, that is based on conversion of a non-fluorescent substrate (calcein AM) to a fluorescent product by nonspecific esterases in live cells, was employed to monitor cell death in wild type (wt) ST14A-Htt and mut ST14A-Htt cell lines. Cell death is indicated by a decrease in fluorescence. […] 3 μl of each compound was transferred from daughter plates to triplicate assay plates for a final assay concentration of 4 μg/ml in 0.1% DMSO (10 μM for NINDS compounds). Cells were incubated at 33° C. for 3 h to enhance attachment and then shifted to 39° C. (with 5% CO2). After 3 days (d), cells were washed 10 times with phosphate buffered saline (PBS) leaving 20 μl residual PBS per well, and 20 μl of 2 μg/ml calcein AM (Molecular probes) in PBS was added per well. […] The fluorescence intensity in each well was normalized to the median of each plate. The median normalized fluorescence of each triplicate assay wells was determined. A well with more than 50% increase in intensity above the median signal intensity was considered a “hit.”
# Assay Development: An assay was developed for detecting mutant htt-induced cell death in ST14A cells in a 384-well plate format. A calcein AM-based method was used to detect cell viability, and optimized the cell number and time course for this method. […] A cell number titration was performed to determine the cell density at which calcein fluorescence was not saturated and the coefficient of variation (CV) was low (FIG. 14A-B). A low CV is critical for a high-throughput assay as it decreases noise and enhances sensitivity. […] Next, the kinetics of the fluorescence signal were determined.
# Next, the serum concentrations that induce cell death in these cells were determined. Cells were seeded in decreasing serum (IFS) concentrations (5 to 0%), and cell viability was assayed after 3 d using the calcein AM assay (FIG. 14E).
# A Z′ value of greater than 0 is required for a usable assay, with a maximum value of 1.0 for an ideal assay. For the assay, calcein fluorescence was used on the day of seeding to represent 100% rescue. The difference in calcein fluorescence signal on the day of seeding and after different number of days under serum deprivation was determined and used to calculate the Z′ factor. […] About 47,000 compounds were assayed in a 384-well plate format in triplicate to enhance the reliability of the primary screen.
# [2] = Rescue and toxicity of Compound 164 and analogs (Table 4); conditions: for Max % Toxicity: Table 4, cell model not stated
# [3] = Rattus norvegicus, read-out: EC50 based on activity in N548 mutant cells
# [4] = nonselective hits (rescue also parental ST14A), 0.5% IFS, 39° C., 3 d
# [5] = read-out: EC50 based on activity in N548 mutant cells
compound,measurement,setting,value
Cc1ccc(-c2nc(NS(=O)(=O)c3ccc(Cl)cc3)sc2C)cc1 [revertin-21],maximal fold induction,"[1]; Rattus norvegicus, 72 h",3
same,EC50,[1]; [3],4 µg/mL
"CCCCC[C@H](O)/C=C/[C@H]1[C@H](O)CC(=O)[C@@H]1C/C=C\CCCC(=O)O [Prostaglandin E2, reference compound]",EC50,[1]; [4],100 nM
same,Activity,[1]; nonselective hits,2
CCCc1cc(OC(=O)C(CC)c2ccccc2)n(-c2cccc(F)c2)n1 (centres unmarked) [revertin-1b],selectivity profile of cell death rescue in panel of htt expressing cell lines,[1],selectively rescued cell death in all mutant htt-expressing cell lines
same,maximal fold induction,"[1]; Rattus norvegicus, 72 h",25
same,EC50,[1]; [3],4 µg/mL
CC(C)CC(NC(=O)OCc1ccccc1)C(=O)Oc1ccc2c(=O)c(-c3ccc([N+](=O)O)cc3)coc2c1 (centres unmarked) [revertin-17],maximal fold induction,"[1]; Rattus norvegicus, 72 h",1.5
same,EC50,[1]; [3],4 µg/mL
CC1=NN(C(N)=S)C(=O)C1NNc1ccccc1C(F)(F)F (centres unmarked) [revertin-29],maximal fold induction,"[1]; Rattus norvegicus, 72 h",3
same,EC50,[1]; [3],2 µg/mL
CCC1CN2CCc3cc(OC)c(OC)cc3C2CC1CC1c2cc(OC)c(OC)cc2CCN1C(=O)c1ccco1 (centres unmarked) [revertin-25],maximal fold induction,"[1]; Rattus norvegicus, 72 h",4
same,EC50,[1]; [3],3 µg/mL
COc1ccc(CN(CCC2(c3ccccc3)CCOC(C)(C)C2)C(=O)c2ccco2)cc1OC (centres unmarked) [Compound 164],EC50,[2],10000 nM
same,Max % Toxicity,[2],1.27%
CC[C@@]1(C)CC(CCN(Cc2ccco2)C(C)=O)(c2ccccc2)CCO1 (some centres unmarked) [Compound 164-1],EC50,[2],2000 nM
same,TC50,"[2]; Table 4, toxicity",8000 nM
"CC1(C)CC(CCN(Cc2ccccc2)C(=O)c2ccco2)(c2ccccc2)CCO1 (centres unmarked) [Compound 164-16, 2-Furancarboxamide, N-(phenylmethyl)-N-[2-(tetrahydro-2,2-dimethyl-4-phenyl-2H-pyran-4-yl)ethyl]-(9CI)]",CC50,[2],8000 nM
same,EC50,[2],200 nM
same,Max % Toxicity,[2],53.14%
"CCCOc1ccccc1-c1nc2nn[nH]c2c(=O)[nH]1 [Zaprinast, reference compound]",EC50,"[1]; Rattus norvegicus, ST14A, 72 h",5000 nM
same,Activity,[1]; nonselective hits,1.5
Nonactin [reference compound],"N548 Mut: Max, maximum rescue expressed as fold over DMSO treated N548 mutant cells","[1]; 0.5% IFS, 39° C., 3 d",2.5 fold
same,EC50,[1]; [5],600 nM
"C[C@H](O)[C@H](O)[C@H]1CNc2nc(N)[nH]c(=O)c2N1 [Tetrahydrobiopterin, reference compound]",EC50,"[1]; Rattus norvegicus, ST14A, 72 h",500 nM
same,Activity,[1]; nonselective hits,2.5
Rotenone [reference compound],"N548 Mut: Max, maximum rescue expressed as fold over DMSO treated N548 mutant cells","[1]; 0.5% IFS, 39° C., 3 d",2.5 fold
same,EC50,[1]; [5],5000 nM
"CC[C@]1(O)C[C@H]2CN(CCc3c([nH]c4ccccc34)[C@@](C(=O)OC)(c3cc4c(cc3OC)N(C=O)[C@H]3[C@@](O)(C(=O)OC)[C@H](OC(C)=O)[C@]5(CC)C=CCN6CC[C@]43[C@@H]65)C2)C1 [Vincristine, reference compound]","N548 Mut: Max, maximum rescue expressed as fold over DMSO treated N548 mutant cells","[1]; 0.5% IFS, 39° C., 3 d",2.5 fold
same,EC50,[1]; [5],40 nM
CC(=O)N(c1ccc(Br)cc1)C1C(=O)c2ccccc2C(=O)C1N(C)C (centres unmarked) [revertin-24],maximal fold induction,"[1]; Rattus norvegicus, 72 h",25
same,EC50,[1]; [3],2 µg/mL
"CCOC(=O)C(C)(C)Oc1ccc(Cl)cc1 [Clofibrate, reference compound]",EC50,"[1]; Rattus norvegicus, ST14A, 72 h",1000 nM
same,Activity,[1]; nonselective hits,2
COc1cc2c3c(c1)C(C)CC(C)(C)N3C(=O)C2=O (centres unmarked) [revertin-19],maximal fold induction,"[1]; Rattus norvegicus, 72 h",2
same,EC50,[1]; [3],4 µg/mL
CCOC(=O)c1cccc(NS(O)(O)c2ccc(OC)cc2)c1 [revertin-14],selectivity profile of cell death rescue in panel of htt expressing cell lines,[1],N548 and FL-mutant selective
COc1ccccc1C(CCN(C(C)=O)C(C)c1ccccc1)C1CCC(C)(C)OC1 (centres unmarked) [revertin-3],maximal fold induction,"[1]; Rattus norvegicus, 72 h",4
same,EC50,[1]; [3],2 µg/mL
O=[N+]([O-])c1cc(CN2CCN(CCO)CC2)ccc1Cl [revertin-13],maximal fold induction,"[1]; Rattus norvegicus, 72 h",1.5
same,EC50,[1]; [3],5 µg/mL
"CC1OC(=O)C(C(C)C)NC(=O)C(C(C)C)OC(=O)C(C(C)C)NC(=O)C(C)OC(=O)C(C(C)C)NC(=O)C(C(C)C)OC(=O)C(C(C)C)NC(=O)C(C)OC(O)C(C(C)C)NC(=O)C(C(C)C)OC(=O)C(C(C)C)NC1=O (centres unmarked) [Valinomycin A, reference compound]",maximal fold induction,"[1]; Rattus norvegicus, 72 h",2.5
same,EC50,[1]; [3],150 nM
O=C(NNC(C(=O)Cc1cccs1)C(F)(F)F)c1cccc(Br)c1 (centres unmarked) [revertin-31],maximal fold induction,"[1]; Rattus norvegicus, 72 h",4
same,EC50,[1]; [3],2 µg/mL
"CCCC1O[C@@H]2C[C@H]3[C@@H]4CCC5=CC(=O)C=C[C@]5(C)[C@H]4[C@@H](O)C[C@]3(C)[C@]2(C(=O)CO)O1 (some centres unmarked) [Budesonide, reference compound]",EC50,"[1]; Rattus norvegicus, ST14A, 72 h",500 nM
same,Activity,[1]; nonselective hits,2
CCCN1C(=O)C(=O)c2cc(C)ccc21 [revertin-16],maximal fold induction,"[1]; Rattus norvegicus, 72 h",2
same,EC50,[1]; [3],1 µg/mL
COc1ccc(CN(CCC2(c3ccccc3)CCOC(C)(C)C2)C(=O)c2ccco2)cc1OC (centres unmarked) [revertin-20],maximal fold induction,"[1]; Rattus norvegicus, 72 h",2
same,EC50,[1]; [3],8 µg/mL
CC1(C)C(C=C(Cl)Cl)C1C(=O)C1=C(O)CCCC1=O (centres unmarked) [revertin-6],selectivity profile of cell death rescue in panel of htt expressing cell lines,[1],N548 mutant selective
same,maximal fold induction,"[1]; Rattus norvegicus, 72 h",8
same,EC50,[1]; [3],3 µg/mL
COc1ccc(C(CCN(CC2CCOC(C)(C)C2)C(C)=O)c2ccccc2)cc1 (centres unmarked) [revertin-18],maximal fold induction,"[1]; Rattus norvegicus, 72 h",1.5
same,EC50,[1]; [3],4 µg/mL
Oc1ccc2c(c1)CC1NCCc3cc(O)c(O)c-2c31 (centres unmarked) [revertin-27],maximal fold induction,"[1]; Rattus norvegicus, 72 h",3
same,EC50,[1]; [3],4 µg/mL
CCCCCCN(C(=O)CCCC)C(C)c1nc2ccccc2c(=O)n1-c1ccccc1OC (centres unmarked) [revertin-10],selectivity profile of cell death rescue in panel of htt expressing cell lines,[1],N63 and N548 mutant selective
same,maximal fold induction,"[1]; Rattus norvegicus, 72 h",1.5
same,EC50,[1]; [3],4 µg/mL
CC(C)C1=CCC2C(=C1)CCC1C(C(=O)O)CCCC21C (centres unmarked) [revertin-30],maximal fold induction,"[1]; Rattus norvegicus, 72 h",4
same,EC50,[1]; [3],2 µg/mL
"CC1=C(/C=C/C(C)=C/C=C/C(C)=C/C(=O)O)C(C)(C)CCC1 [Tretinoin, reference compound]",EC50,"[1]; Rattus norvegicus, ST14A, 72 h",600 nM
same,Activity,[1]; nonselective hits,2.5
O=c1cccc2n1CC1CC2CN(C2=NC=NC3c4cc(Cl)ccc4NC23)C1 (centres unmarked) [revertin-12],maximal fold induction,"[1]; Rattus norvegicus, 72 h",1.5
same,EC50,[1]; [3],3 µg/mL
O=c1[nH]c2c(c(=O)[nH]1)C(c1cccc([N+](=O)[O-])c1)C=C(c1ccccc1)O2 (centres unmarked) [revertin-15],maximal fold induction,"[1]; Rattus norvegicus, 72 h",3
same,EC50,[1]; [3],1 µg/mL
COc1cc(CC(=O)NC(C)C2C(=O)CC3C2C3(C)C)cc(OC)c1OC (centres unmarked) [revertin-4],maximal fold induction,"[1]; Rattus norvegicus, 72 h",1.5
same,EC50,[1]; [3],4 µg/mL
"COc1cc([C@@H]2c3cc4c(cc3[C@H](O)[C@H]3COC(=O)[C@H]23)OCO4)cc(OC)c1OC [Podophyllotoxin, reference compound]",maximal fold induction,"[1]; Rattus norvegicus, 72 h",2.5
same,EC50,[1]; [3],25 nM
Antimycin A [reference compound],"N548 Mut: Max, maximum rescue expressed as fold over DMSO treated N548 mutant cells","[1]; 0.5% IFS, 39° C., 3 d",3 fold
same,EC50,[1]; [5],5000 nM
"O=C(O)c1cc([N+](=O)[O-])ccc1NCCCc1ccccc1 [Compound 2-NPPB, reference compound]",EC50,[1]; [4],10000 nM
same,Activity,[1]; nonselective hits,1.5
same,CC50,"[1]; read-out: TC50, nonselective hits, maximum concentration tested 80 μM",40000 nM
CC12CC3CC(C)(C1)CC(NC=O)(C3)C2 [revertin-26],maximal fold induction,"[1]; Rattus norvegicus, 72 h",1.5
same,EC50,[1]; [3],5 µg/mL
